Source: patent US8802082B2, “Rhodamine derivatives for photodynamic diagnosis and treatment” (Université de Montreal, priority 1999, dated 2014)

System: PHA-activated PB mononuclear cells
Assay: Phototoxicity against PHA-activated PB mononuclear cells (mixed lymphocyte reaction, 3H-thymidine; cell counts)
Format: cell-based, human
Protocol: Suspensions of cells were then incubated with 10 μM TH9402 for 40 minutes at 37° C. Cells were treated at 1×10^6 cells/mL in X-vivo-15 medium without phenol red (BioWhittaker, Walkersville, Md., USA) supplemented with 2,5% FBS. At the end of the incubation period, cells were spun down and the cell pellet resuspended in the X-vivo culture medium in the absence of dye, supplemented with 10% FBS. Cells were then placed in T-flasks (Corning, Cambridge, Mass., USA) for 90 minutes at 37° C. […]
Normal PBMC were activated by incubation at 37° C. for 48 to 72 hours in X-vivo-15 medium (Biowhittaker, Walkersville. Md. U.S.A.) supplemented with 20% AB serum (Sigma), 1% pen-strep (Gibco), 2% glutamin (Gibco) and 20 μg/ml of phytohemagglutinin-A (PHA-P)(Sigma). […] Following incubation, cells were washed and treated with the TH9402 photodynamic treatment as described above, and proliferative activity measured as described below.
The latter cells were serially diluted in order to obtain effector (treated cells) to target ratios ranging from 2:1 to 1:4 (4×10^4 treated effector cells/well) and incubated at 37° C. for 5 days. […] Radioactivity in the cell harvest was counted using a liquid scintillation counter (Beckman, Chicago, Ill., USA).
The phototoxicity of TH9402 against PHA-activated PB mononuclear cells was assessed after photodynamic treatment using 5 and 7.5 joules/cm^2 of light energy (FIG. 2). […]

Compound: Br.COC(=O)c1ccccc1-c1c2ccc(=N)c(Br)c-2oc2c(Br)c(N)ccc12 [TH9402, 4,5-dibromorhodamine 123 (2-(4,5-dibromo-6-amino-3-imino-3H-xanthen-9-yl)-benzoic acid methyl ester) hydrobromide]
- reactivity towards MHC incompatible cells (proliferation in mixed lymphocyte culture) (PHA-activated cells treated with TH9402, 5 and 7.5 J/cm^2): abrogated
- decrease of cell counts of the treated cells in comparison to the medium control (three days after the photodynamic treatment): > 90%
